The values that follow come from US20210395239A1 (Hoffmann-La Roche Inc., priority 2018, published 2021).

SMILES strings stand for the structures.

The experiment has as its target T1, human TLR8 (Homo sapiens, UniProt Q9NR97).
T1 construct: host or cells: HEK293 (HEK-Blue hTLR8)
T1 sequence (Q9NR97 27-1041): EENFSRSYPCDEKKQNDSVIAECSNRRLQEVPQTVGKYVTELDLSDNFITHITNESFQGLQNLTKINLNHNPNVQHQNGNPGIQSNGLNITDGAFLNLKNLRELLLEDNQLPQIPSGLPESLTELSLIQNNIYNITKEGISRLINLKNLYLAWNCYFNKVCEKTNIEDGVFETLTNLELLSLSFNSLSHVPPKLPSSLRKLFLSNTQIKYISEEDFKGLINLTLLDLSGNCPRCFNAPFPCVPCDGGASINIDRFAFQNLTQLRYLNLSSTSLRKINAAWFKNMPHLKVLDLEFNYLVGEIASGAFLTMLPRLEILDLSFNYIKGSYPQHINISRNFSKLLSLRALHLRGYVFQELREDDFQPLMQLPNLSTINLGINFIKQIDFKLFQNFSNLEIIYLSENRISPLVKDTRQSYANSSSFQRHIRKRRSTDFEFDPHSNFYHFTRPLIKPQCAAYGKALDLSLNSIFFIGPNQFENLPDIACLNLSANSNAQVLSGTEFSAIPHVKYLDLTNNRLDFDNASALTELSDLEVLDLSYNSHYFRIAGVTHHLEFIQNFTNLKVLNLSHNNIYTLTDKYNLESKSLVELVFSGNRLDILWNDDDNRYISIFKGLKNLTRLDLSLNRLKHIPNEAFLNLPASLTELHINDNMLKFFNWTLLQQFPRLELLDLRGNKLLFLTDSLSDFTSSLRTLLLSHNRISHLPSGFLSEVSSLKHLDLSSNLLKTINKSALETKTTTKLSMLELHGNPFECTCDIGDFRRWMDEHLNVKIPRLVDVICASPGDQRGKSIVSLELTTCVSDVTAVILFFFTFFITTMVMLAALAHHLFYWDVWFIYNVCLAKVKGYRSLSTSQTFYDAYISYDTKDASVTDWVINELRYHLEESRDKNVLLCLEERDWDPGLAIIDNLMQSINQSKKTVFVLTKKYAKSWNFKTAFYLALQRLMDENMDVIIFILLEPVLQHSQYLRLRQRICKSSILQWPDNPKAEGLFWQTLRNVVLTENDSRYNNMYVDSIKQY
In words: HEK293-Blue-hTLR-8 cells assay (SEAP reporter, R848 stimulation). The format is cell-based. Particulars: HEK293-Blue-hTLR8 cells, R848, 20 hrs; read-out: HEK/hTLR8 IC50. The source says: HEK293-Blue-hTLR-8 Cells Assay:
A stable HEK293-Blue-hTLR-8 cell line was purchased from InvivoGen (Cat. #: hkb-ht1r8, San Diego, Calif., USA). These cells were originally designed for studying the stimulation of human TLR8 by monitoring the activation of NF-κB. A SEAP (secreted embryonic alkaline phosphatase) reporter gene was placed under the control of the IFN-β minimal promoter fused to five NF-κB and AP-1-binding sites. The SEAP was induced by activating NF-κB and AP-1 via stimulating HEK-Blue hTLR8 cells with TLR8 ligands. Therefore the reporter expression was declined by TLR8 antagonist under the stimulation of a ligand, such as R848, for incubation of 20 hrs. The cell culture supernatant SEAP reporter activity was determined using QUANTI-Blue™ kit (Cat. #: rep-qb1, Invivogen, San Diego, Ca, USA) at a wavelength of 640 nm, a detection medium that turns purple or blue in the presence of alkaline phosphatase.
HEK293-Blue-hTLR8 cells were incubated at a density of 250,000˜450,000 cells/mL in a volume of 170 μL in a 96-well plate in Dulbecco's Modified Eagle's medium (DMEM) containing 4.5 g/L glucose, 50 U/mL penicillin, […], […], 2 mM L-glutamine, 10% (v/v) heat-inactivated fetal bovine serum with addition of 20 μL test compound in a serial dilution in the presence of final DMSO at 1% and 10 μL of 60 uM R848 in above DMEM, perform incubation under 37° C. in a CO2 incubator for 20 hrs. Then 20 μL of the supernatant from each well was incubated with 180 μL Quanti-blue substrate solution at 37° C. for 2 hrs and the absorbance was read at 620˜655 nm using a spectrophotometer. The signaling pathway that TLR8 activation leads to downstream NF-κB activation has been widely accepted, and therefore similar reporter assay was modified for evaluating TLR8 antagonist.
In the case of `[2H]c1ccc2c(N3C[C@H](CN4CC(c5ccc(N6C[C@@H](N)[C@H](OC)C6)nc5)C4)O[C@H](C)C3)ccc(C#N)c2n1` [Example 149, 5-[(2S,6R)-2-[[3-[6-[(3R,4R)-3-amino-4-methoxy-pyrrolidin-1-yl]-3-pyridyl]azetidin-1-yl]methyl]-6-methyl-morpholin-4-yl]-2-deuterio-quinoline-8-carbonitrile], the IC50 came to 12 nM.

Turning to `[2H]c1ccc2c(N3C[C@H](CN4CCN(c5ccc(N6CC7(CN(C)C7)C6)nc5)CC4)O[C@H](C)C3)ccc(C#N)c2n1` [Example 161, 2-deuterio-5-[(2R,6S)-2-methyl-6-[[4-[6-(6-methyl-2,6-diazaspiro[3.3]heptan-2-yl)-3-pyridyl]piperazin-1-yl]methyl]morpholin-4-yl]quinoline-8-carbonitrile], the IC50 is 8 nM. `[2H]c1ccc2c(N3C[C@H](CN4CCN(c5ccc(N6C[C@@H](N)[C@H](OC)C6)nc5)CC4)O[C@H](C)C3)ccc(C#N)c2n1` [Example 143, 5-[(2S,6R)-2-[[4-[6-[(3R,4R)-3-amino-4-methoxy-pyrrolidin-1-yl]-3-pyridyl]piperazin-1-yl]methyl]-6-methyl-morpholin-4-yl]-2-deuterio-quinoline-8-carbonitrile]: the IC50 was 8 nM. On to `C[C@@H]1CN(c2ccc(C#N)c3ncccc23)C[C@H](CN2CCN(c3ccc(CN)cc3)CC2)O1` [Example 5, 5-[(2S,6R)-2-[[4-[4-(aminomethyl)phenyl]piperazin-1-yl]methyl]-6-methyl-morpholin-4-yl]quinoline-8-carbonitrile], for which the IC50 amounted to 33 nM. Turning to `C[C@@H]1CN(c2ccc(C#N)n3nccc23)C[C@H](CN2CC(c3ccc(N4CC(C)(N)C4)cc3)C2)O1` [Example 163, 4-[(2S,6R)-2-[[3-[4-(3-amino-3-methyl-azetidin-1-yl)phenyl]azetidin-1-yl]methyl]-6-methyl-morpholin-4-yl]pyrazolo[1,5-a]pyridine-7-carbonitrile], the IC50 worked out at 68 nM.

On to `C[C@@H]1CN(c2ccc(C#N)n3ncc(F)c23)C[C@H](CN2CC(c3ccc(N4C[C@@H]5C[C@H]4CN5)nc3)C2)O1` [Example 165, 4-[(2S,6R)-2-[[3-[6-[(1S,4S)-2,5-diazabicyclo[2.2.1]heptan-2-yl]-3-pyridyl]azetidin-1-yl]methyl]-6-methyl-morpholin-4-yl]-3-fluoro-pyrazolo[1,5-a]pyridine-7-carbonitrile], for which the IC50 amounted to 92 nM. Take `CO[C@H]1CN(c2ccnc(N3CCN(C[C@H]4CN(c5ccc(C#N)c6ncccc56)C[C@@H](C)O4)CC3)n2)C[C@@H]1N` [Example 97, 5-[(2S,6R)-2-[[4-[4-[(3S,4S)-3-amino-4-methoxy-pyrrolidin-1-yl]pyrimidin-2-yl]piperazin-1-yl]methyl]-6-methyl-morpholin-4-yl]quinoline-8-carbonitrile]: the IC50 was found to be 1 nM. With `COC1CCN(c2nccc(N3CCN(C[C@H]4CN(c5ccc(C#N)c6ncccc56)C[C@@H](C)O4)CC3)n2)CC1N` (stereo partly drawn) [Example 109, 5-[(2S,6R)-2-[[4-[2-(3-amino-4-methoxy-1-piperidyl)pyrimidin-4-yl]piperazin-1-yl]methyl]-6-methyl-morpholin-4-yl]quinoline-8-carbonitrile], the IC50 was 2 nM. For `Cc1cnc(N2CCN(C[C@H]3CN(c4ccc(C#N)c5ncccc45)C[C@@H](C)O3)CC2)nc1N1CCNCC1` [Example 102, 5-[(2R,6S)-2-methyl-6-[[4-(5-methyl-4-piperazin-1-yl-pyrimidin-2-yl)piperazin-1-yl]methyl]morpholin-4-yl]quinoline-8-carbonitrile] the value was 2 nM. The result for `[2H]c1ccc2c(N3C[C@H](CN4CC(c5ccc(N6CC(C)(N)C6)cc5)C4)O[C@H](C)C3)ccc(C#N)c2n1` [Example 141, 5-[(2S,6R)-2-[[3-[4-(3-amino-3-methyl-azetidin-1-yl)phenyl]azetidin-1-yl]methyl]-6-methyl-morpholin-4-yl]-2-deuterio-quinoline-8-carbonitrile] reads 9 nM. With `CO[C@@H]1CN(c2ccc(C3CN(C[C@H]4CN(c5ccc(C#N)n6ncc(F)c56)C[C@@H](C)O4)C3)cn2)C[C@H]1N` [Example 164, 4-[(2S,6R)-2-[[3-[6-[(3R,4R)-3-amino-4-methoxy-pyrrolidin-1-yl]-3-pyridyl]azetidin-1-yl]methyl]-6-methyl-morpholin-4-yl]-3-fluoro-pyrazolo[1,5-a]pyridine-7-carbonitrile], the IC50 worked out at 30 nM. The result for `[2H]c1ccc2c(N3C[C@H](CN4CCN(c5ncc(N6CC(C)(N)C6)cc5C)CC4)O[C@H](C)C3)ccc(C#N)c2n1` [Example 139, 5-[(2S,6R)-2-[[4-[5-(3-amino-3-methyl-azetidin-1-yl)-3-methyl-2-pyridyl]piperazin-1-yl]methyl]-6-methyl-morpholin-4-yl]-2-deuterio-quinoline-8-carbonitrile] reads 13 nM; that for `[2H]c1ccc2c(N3C[C@H](CN4CC(c5cccc(N6CC(C)(N)C6)n5)C4)O[C@H](C)C3)ccc(C#N)c2n1` [Example 159, 5-[(2S,6R)-2-[[3-[6-(3-amino-3-methyl-azetidin-1-yl)-2-pyridyl]azetidin-1-yl]methyl]-6-methyl-morpholin-4-yl]-2-deuterio-quinoline-8-carbonitrile], 52 nM.

`Cc1ccc(N2C[C@H](CN3CCN(c4ccnc(N5CCN[C@H](C)C5)n4)CC3)O[C@H](C)C2)c2nccnc12` [Example 128, (2R,6S)-2-methyl-6-[[4-[2-[(3R)-3-methylpiperazin-1-yl]pyrimidin-4-yl]piperazin-1-yl]methyl]-4-(8-methylquinoxalin-5-yl)morpholine]: the IC50 worked out at 12 nM. The result for `Cc1cc(N2CC(C)(N)C2)cnc1N1CCN(C[C@H]2CN(c3ccc(C#N)n4ncc(F)c34)C[C@@H](C)O2)CC1` [Example 148, 4-[(2S,6R)-2-[[4-[5-(3-amino-3-methyl-azetidin-1-yl)-3-methyl-2-pyridyl]piperazin-1-yl]methyl]-6-methyl-morpholin-4-yl]-3-fluoro-pyrazolo[1,5-a]pyridine-7-carbonitrile] reads 49 nM; that for `[2H]c1ccc2c(N3C[C@H](CN4CC(c5cnc(N6CC(C)(N)C6)cc5C)C4)O[C@H](C)C3)ccc(C#N)c2n1` [Example 145, 5-[(2S,6R)-2-[[3-[6-(3-amino-3-methyl-azetidin-1-yl)-4-methyl-3-pyridyl]azetidin-1-yl]methyl]-6-methyl-morpholin-4-yl]-2-deuterio-quinoline-8-carbonitrile], 14 nM; that for `Cc1ccc(N2C[C@H](CN3CCN(c4ccnc(N5CCNCC5)n4)CC3)O[C@H](C)C2)c2nccnc12` [Example 117, (2R,6S)-2-methyl-4-(8-methylquinoxalin-5-yl)-6-[[4-(2-piperazin-1-ylpyrimidin-4-yl)piperazin-1-yl]methyl]morpholine], 7 nM.

Regarding `Cc1ccc(N2C[C@H](CN3CCN(c4ccnc(N5CC(N)C5)n4)CC3)O[C@H](C)C2)c2nccnc12` [Example 130, 1-[4-[4-[[(2S,6R)-6-methyl-4-(8-methylquinoxalin-5-yl)morpholin-2-yl]methyl]piperazin-1-yl]pyrimidin-2-yl]azetidin-3-amine], the IC50 was determined as 8 nM.
